Measurements reported in ChEMBL document CHEMBL1201862, “PubChem BioAssay data set” (2004).
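Grown in 96-well plates, cells were treated for 48 hours with each compound at five concentrations. Insufficient inhibition: endpoint recorded as highest concentration tested. GI50 = concentration required for 50% inhibition of growth.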 Calls of active or inactive are those of the source. Rule as the data show it: active = GI50 up to about 1.1 µM and inactive = higher.

Assays:
Assay in all cases: DTP human tumour cell line panel, 48 h
ACHN = test system: ACHN
CCRF-CEM = test system: CCRF-CEM
DU-145 = test system: DU-145
HCC 2998 = test system: HCC 2998
IGROV-1 = test system: IGROV-1
M14 = test system: M14
MDA-MB-231 = test system: MDA-MB-231
MDA-MB-435 = test system: MDA-MB-435
NCI-H23 = test system: NCI-H23
NCI-H460 = test system: NCI-H460
PC-3 = test system: PC-3
SK-MEL-28 = test system: SK-MEL-28
SK-MEL-5 = test system: SK-MEL-5
SK-OV-3 = test system: SK-OV-3
SN12C = test system: SN12C
SNB-19 = test system: SNB-19
SR = test system: SR
SW-620 = test system: SW-620
UO-31 = test system: UO-31
SF-539 = test system: SF-539

Measured: GI50

CN1C(=O)N/C(=C\c2ccc(S(=O)(=O)N/N=C/c3ccccc3)cc2)C1=O
inactive: ACHN 24.7 µM | CCRF-CEM 13.3 µM | DU-145 40 µM | HCC 2998 32.1 µM | IGROV-1 42.1 µM | M14 37 µM | MDA-MB-231 11 µM | MDA-MB-435 37 µM | NCI-H23 23.3 µM | NCI-H460 10.5 µM | PC-3 22.1 µM | SK-MEL-28 38 µM | SK-MEL-5 13.6 µM | SK-OV-3 > 100 µM | SN12C 66.2 µM | SNB-19 62.2 µM | SR 10.4 µM | SW-620 91.6 µM | UO-31 15.5 µM

Clc1ccc(/N=C/C=C/Nc2ccc(Cl)cn2)nc1
inactive: ACHN 12.6 µM | CCRF-CEM 3.22 µM | DU-145 17.5 µM | IGROV-1 15 µM | M14 16.4 µM | MDA-MB-231 5 µM | MDA-MB-435 14.5 µM | NCI-H23 16.9 µM | NCI-H460 16 µM | PC-3 14.5 µM | SF-539 17.3 µM | SK-MEL-28 18.6 µM | SK-MEL-5 13.7 µM | SK-OV-3 21.8 µM | SN12C 14.5 µM | SNB-19 16 µM | SR 2.78 µM | SW-620 4.9 µM | UO-31 15.6 µM

C[C@H](CC[C@@H](O)C(C)(C)O)[C@H]1CC[C@@]2(C)[C@@H]3CC=C4[C@@H](CC[C@H](O)C4(C)C)[C@]3(C)C(=O)C[C@]12C [BRYODULCOSIGENIN]
inactive: ACHN > 50 µM | CCRF-CEM 16.5 µM | DU-145 > 50 µM | IGROV-1 > 50 µM | M14 29 µM | MDA-MB-231 > 50 µM | MDA-MB-435 37.6 µM | NCI-H23 26.6 µM | NCI-H460 31.1 µM | PC-3 13.7 µM | SF-539 > 50 µM | SK-MEL-28 24.2 µM | SK-MEL-5 24.7 µM | SK-OV-3 42.5 µM | SN12C 28.6 µM | SNB-19 > 50 µM | SR 23.1 µM | SW-620 22.8 µM | UO-31 34 µM

CCCCCCCCCCCCCCCCC(C(=O)O)C(O)(CC(=O)O)C(=O)O (stereo unspecified)
inactive: ACHN 40.6 µM | CCRF-CEM 27.1 µM | DU-145 35.6 µM | IGROV-1 22.1 µM | M14 19.7 µM | MDA-MB-231 27.5 µM | MDA-MB-435 34.8 µM | NCI-H23 29 µM | NCI-H460 17.5 µM | PC-3 19.5 µM | SF-539 28.1 µM | SK-MEL-28 23.9 µM | SK-MEL-5 39.1 µM | SK-OV-3 17.7 µM | SN12C 21.7 µM | SNB-19 23.9 µM | SR 24.7 µM | SW-620 20 µM | UO-31 20.3 µM

COc1cc(C(=O)N(C)N(C)C)cc(OC)c1OC
inactive: ACHN > 10 µM | CCRF-CEM > 10 µM | DU-145 > 10 µM | HCC 2998 > 10 µM | IGROV-1 > 10 µM | M14 > 10 µM | MDA-MB-231 > 10 µM | MDA-MB-435 > 10 µM | NCI-H23 > 10 µM | NCI-H460 > 10 µM | PC-3 > 10 µM | SF-539 > 10 µM | SK-MEL-28 > 10 µM | SK-MEL-5 > 10 µM | SK-OV-3 > 10 µM | SN12C > 10 µM | SNB-19 > 10 µM | SW-620 > 10 µM | UO-31 > 10 µM

Cc1cc2nc3[nH]nc(N)c3nc2cc1C
inactive: ACHN > 100 µM | CCRF-CEM > 100 µM | DU-145 36.6 µM | HCC 2998 > 100 µM | IGROV-1 > 100 µM | M14 > 100 µM | MDA-MB-231 > 100 µM | MDA-MB-435 > 100 µM | NCI-H23 > 100 µM | NCI-H460 > 100 µM | PC-3 > 100 µM | SK-MEL-28 > 100 µM | SK-OV-3 > 100 µM | SN12C > 100 µM | SNB-19 > 100 µM | SR > 100 µM | SW-620 > 100 µM | UO-31 > 100 µM

Clc1ccc(/C=c2\nc(-c3ccccc3)n3c2nc2ccccc23)cc1
inactive: ACHN 21.9 µM | CCRF-CEM > 100 µM | DU-145 > 100 µM | IGROV-1 > 100 µM | M14 > 100 µM | MDA-MB-231 61.5 µM | MDA-MB-435 > 100 µM | NCI-H23 > 100 µM | NCI-H460 > 100 µM | PC-3 19.1 µM | SF-539 22.4 µM | SK-MEL-5 > 100 µM | SK-OV-3 43.3 µM | SN12C > 100 µM | SNB-19 > 100 µM | SR > 100 µM | SW-620 > 100 µM | UO-31 > 100 µM
active: SK-MEL-28 0.0465 µM

O=C(O)c1cc(NC2=C(Cl)C(=O)c3c(O)ccc(O)c3C2=O)ccc1O
inactive: ACHN > 10 µM | CCRF-CEM > 10 µM | DU-145 > 10 µM | HCC 2998 > 10 µM | IGROV-1 > 10 µM | M14 > 10 µM | MDA-MB-231 > 10 µM | MDA-MB-435 > 10 µM | NCI-H23 > 10 µM | NCI-H460 > 10 µM | PC-3 > 10 µM | SF-539 > 10 µM | SK-MEL-28 > 10 µM | SK-MEL-5 > 10 µM | SK-OV-3 > 10 µM | SN12C > 10 µM | SNB-19 > 10 µM | SW-620 > 10 µM | UO-31 > 10 µM

CC(C)(C)OC(=O)[C@@H]1ON2O[C@H](OC3CCCC3(c3ccccc3)c3ccccc3)C[C@H]3OC(=O)[C@@H]1[C@H]32 (stereo partly specified)
inactive: ACHN > 100 µM | CCRF-CEM > 100 µM | DU-145 81.8 µM | IGROV-1 38.7 µM | M14 40.6 µM | MDA-MB-231 > 100 µM | MDA-MB-435 57.9 µM | NCI-H23 46.5 µM | NCI-H460 54.3 µM | PC-3 26.8 µM | SF-539 > 100 µM | SK-MEL-28 95.1 µM | SK-MEL-5 41.6 µM | SK-OV-3 > 100 µM | SN12C 58.5 µM | SNB-19 > 100 µM | SR > 100 µM | SW-620 85.7 µM | UO-31 71.9 µM

C/C(=N/NC(=S)N(Cc1ccccn1)Cc1ccccn1)c1cnccn1
inactive: HCC 2998 2.69 µM | PC-3 2.49 µM
active: ACHN 0.306 µM | CCRF-CEM 0.0551 µM | DU-145 0.713 µM | IGROV-1 0.288 µM | M14 0.0622 µM | MDA-MB-231 0.646 µM | MDA-MB-435 0.897 µM | NCI-H23 0.731 µM | NCI-H460 0.601 µM | SK-MEL-28 0.721 µM | SK-MEL-5 0.432 µM | SK-OV-3 0.476 µM | SN12C 0.208 µM | SNB-19 0.962 µM | SR 0.578 µM | SW-620 0.288 µM

O=C(c1ccco1)N(C(=S)OCc1ccccn1)c1ccccc1
inactive: ACHN 86.1 µM | CCRF-CEM 69.8 µM | DU-145 > 100 µM | IGROV-1 50.1 µM | M14 > 100 µM | MDA-MB-231 > 100 µM | MDA-MB-435 > 100 µM | NCI-H23 > 100 µM | PC-3 59.8 µM | SF-539 36 µM | SK-MEL-28 > 100 µM | SK-MEL-5 88.9 µM | SK-OV-3 > 100 µM | SN12C > 100 µM | SNB-19 > 100 µM | SR 1.25 µM | SW-620 > 100 µM | UO-31 43.9 µM
